# Test results published in ChEMBL document CHEMBL2074577, “Resistance to mitoxantrone in multidrug-resistant MCF7 breast cancer cells: evaluation of mitoxantrone transport and the role of multidrug resistance protein family proteins” (Cancer Res, 2001).
# Biological target: Multidrug resistance-associated protein 1 (Homo sapiens, UniProt P33527)
# Test: TP_TRANSPORTER: efflux in MCF7/VP and MCF cells
# Format: functional, cell-based
# Multidrug resistance-associated protein 1, sequence (P33527 whole entry): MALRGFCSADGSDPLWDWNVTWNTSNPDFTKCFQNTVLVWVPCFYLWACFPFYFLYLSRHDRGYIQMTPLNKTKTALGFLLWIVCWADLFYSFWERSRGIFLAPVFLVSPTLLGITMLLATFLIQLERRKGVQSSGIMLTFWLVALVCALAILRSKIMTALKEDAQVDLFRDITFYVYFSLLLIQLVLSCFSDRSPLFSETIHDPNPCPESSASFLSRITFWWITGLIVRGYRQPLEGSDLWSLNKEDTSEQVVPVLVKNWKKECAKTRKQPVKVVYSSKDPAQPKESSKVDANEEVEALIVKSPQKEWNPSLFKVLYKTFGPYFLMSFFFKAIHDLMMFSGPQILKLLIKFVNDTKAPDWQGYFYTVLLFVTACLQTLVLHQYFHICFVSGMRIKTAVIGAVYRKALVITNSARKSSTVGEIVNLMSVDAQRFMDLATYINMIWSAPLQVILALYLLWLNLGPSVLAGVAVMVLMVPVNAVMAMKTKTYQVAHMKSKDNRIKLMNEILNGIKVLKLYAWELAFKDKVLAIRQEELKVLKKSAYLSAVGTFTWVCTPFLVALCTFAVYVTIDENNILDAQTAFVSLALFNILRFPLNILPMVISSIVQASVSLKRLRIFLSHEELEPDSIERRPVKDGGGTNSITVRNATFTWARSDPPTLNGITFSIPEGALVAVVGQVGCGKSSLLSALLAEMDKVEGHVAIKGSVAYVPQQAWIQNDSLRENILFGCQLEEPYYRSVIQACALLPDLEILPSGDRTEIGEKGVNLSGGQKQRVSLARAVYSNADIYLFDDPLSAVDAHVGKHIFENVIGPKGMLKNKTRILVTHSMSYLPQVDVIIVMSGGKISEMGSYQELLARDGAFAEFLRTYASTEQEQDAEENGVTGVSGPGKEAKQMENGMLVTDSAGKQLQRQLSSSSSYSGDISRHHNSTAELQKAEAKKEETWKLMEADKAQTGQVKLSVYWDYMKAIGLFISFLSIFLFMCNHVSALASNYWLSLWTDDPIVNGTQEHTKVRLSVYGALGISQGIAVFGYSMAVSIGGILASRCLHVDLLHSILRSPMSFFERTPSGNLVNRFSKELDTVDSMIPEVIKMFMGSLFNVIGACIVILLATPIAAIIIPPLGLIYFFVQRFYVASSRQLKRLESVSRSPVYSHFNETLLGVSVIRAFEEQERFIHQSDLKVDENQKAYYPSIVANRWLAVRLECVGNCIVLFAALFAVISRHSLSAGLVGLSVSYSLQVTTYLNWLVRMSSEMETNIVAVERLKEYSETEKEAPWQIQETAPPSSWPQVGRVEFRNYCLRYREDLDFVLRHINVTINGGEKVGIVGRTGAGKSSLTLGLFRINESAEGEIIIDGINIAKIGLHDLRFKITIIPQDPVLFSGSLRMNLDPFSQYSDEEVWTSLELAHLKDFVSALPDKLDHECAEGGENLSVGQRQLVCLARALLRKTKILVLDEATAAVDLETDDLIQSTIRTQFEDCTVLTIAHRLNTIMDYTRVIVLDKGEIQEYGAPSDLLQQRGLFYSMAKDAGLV
structure (smiles),measurement,value
O=C1c2c(O)ccc(O)c2C(=O)c2c(NCCNCCO)ccc(NCCNCCO)c21 [MITOXANTRONE],Activity,substrate [+]
